Source: US5519049A, “Macrolides for the treatment of reversible obstructive airways diseases” (Fisons plc, priority 1989, dated 1996)

Experiments:
respiratory resistance = assay: Assay for respiratory resistance (inhibitory activity after antigen inhalation challenge, oscillation method); assay type: in vivo, inhalation-sensitized male Hartley guinea pigs; settings: oral pretreatment every other day, 1 mgml^-1 solution; n = 7; after ovalbumin inhalation challenge; result in words (table title)
Protocol: (§1) Assay for inhibitory activity against respiratory resistance and antigen-induced bronchial hyper-responsiveness
(§2) Male Hartley guinea pigs (weighing about 300 g) were each placed in a plastic inhalation chamber. Using an ultrasonic nebulizer (NEU10B, Omron Corporation), an aerosolized solution of ovalbumin in physiological saline (10 mgml^-1) was introduced into the chamber for 10 minutes daily for 10 consecutive days to effect sensitization. The animals were used in the experiments 5 days after establishment of sensitization.
During the period from the first day of sensitization to the day before an antigen challenge, the animals were orally treated with a 1 mgml^-1 solution of FR-900506 (in ethanol/olive oil [2:78 v/v]) every other day. Control animals received the ethanol/olive oil vehicle alone in the same manner.
The experimental period was 5 days from day 1 to day 5, and the inhalation challenge with the antigen was given on day 2.
On day 1, and 30 minutes before antigen inhalation challenge on day 2, metopirone (an endogenous cortisol synthesis inhibitor) was intravenously administered (10 mgkg^-1). So that the animals could tolerate the antigen at comparatively high concentrations, chlorpheniramine maleate, an antihistaminic, was intraperitoneally administered (10 mgkg^-1) following the second dose of metopirone. […]
(§3) The results are expressed as mean ±SEM. […]

[1] = tested on: antigen-induced bronchial hyper-responsiveness to acetylcholine; assay: Assay for antigen-induced bronchial hyper-responsiveness to acetylcholine (PC200-Ach); assay type: in vivo, inhalation-sensitized male Hartley guinea pigs; settings: oral pretreatment every other day, 1 mgml^-1 solution, n = 7, result in words (table title)
Protocol: as §1, §2
During the period from the first day of sensitization to the day before an antigen challenge, the animals were orally treated with a 1 mgml^-1 solution of FR-900506 (in ethanol/olive oil [2:78 v/v]) every other day. Control animals received the ethanol/olive oil vehicle alone in the same manner. […]
Guinea pigs prepared by the method described above were placed in an animal box as described above and the baseline respiratory resistance was measured. […] From the concentration-resistance curve constructed from the acetylcholine concentration and respiratory resistance data, the acetylcholine concentration necessary for increasing the respiratory resistance to twice the baseline value [i.e. PC200 -Ach (μgml^-1)] was calculated.
as §3

ddy mice = assay: Acute intraperitoneal toxicity study; assay type: in vivo; settings: 100 mgkg^-1

With `C=CC[C@@H]1/C=C(\C)C[C@H](C)C[C@H](OC)[C@H]2O[C@@](O)(C(=O)C(=O)N3CCCC[C@H]3C(=O)O[C@H](/C(C)=C/[C@@H]3CC[C@@H](O)[C@H](OC)C3)[C@H](C)[C@@H](O)CC1=O)[C@H](C)C[C@@H]2OC` [FR-900506] the “Inhibitory effect on respiratory resistance” value (respiratory resistance) was “Inhibitory effect”, the “Inhibitory effect on antigen induced hyper-responsiveness to acetylcholine” value [1] was “Inhibitory effect” and the “Acute intraperitoneal toxicity, deaths” value (ddy mice) was “no deaths”.
